From patent US6214860A, “Synergistic antitumor composition containing a naphthalensulphonic acid derivative” (Pharmacia & Upjohn S.p.A., priority 1997, dated 2001)
Several values for one entry are separate records, joined by “and”; a condition that tells them apart may be missing. Equal values may be shown once. Where a name gives a salt, the structure may show the parent alone. Read-outs that look alike come from different tables or passages of the source.

How the values were obtained:
[1] = tested on: M5076 murine reticulosarcoma cells; experiment: In vitro antiproliferative activity (% cell growth vs untreated control); assay type: cell-based
Description: (§1) The combinations were assayed in vitro on M5076 murine reticulosarcoma cells and in vivo on the same tumor cells implanted intramuscularly.

[2] = tested on: M5076 murine reticulosarcoma cells; experiment: In vivo antitumor activity in mice implanted with M5076 tumor cells; parameters: species or system Mice C57BL/6; conditions: days 1, 4, 7 and 11; for A.U.C. % inhib. (inhibition of tumor growth): one week after last treatment; for TGD (tumor growth delay): time to reach one gram
Description: as §1
The antitumor activity was calculated in terms of:
% AUC: inhibition of tumor growth
T/C %: percentage of median increase in survival time
The A.U.C. (area under the curve) of the tumor growth was calculated by using the trapezoidal method, and is referred to the measurement of tumor growth performed one week after the last treatment. The percentage of inhibition (% A.U.C.) was calculated using the following formula: [formula]
The percentage of increase in survival time (T/C% ) was calculated using the following formula: [formula]
Mice were monitored according to guidelines and sacrificed when tumor weight exceeded 10% body weight. Tumor growth delay (TGD) is the time, in days, to reach one gram of tumor weight in treated animals as compared to control animals.
Evaluation of statistical significance was performed as follows: Student's Test for cytotoxic activity, Two-Way Anova for increase in survival time (T/C %) with combined treatment in comparison to the increase exerted separately by the two drugs, Tukey Test for tumor weight reduction (AUC % inhibition) with combined treatment in comparison to the reduction exerted separately by the two drugs.
The criterion for statistical significance was the 0.01 level ( )

[3] = days 1, 4, 7 and 11
Description: Mice C57BL/6 were implanted with M5076 murine reticulosarcoma cells. PNU 145156E was administered ip 2 h prior to cytotoxic drugs administered iv starting treatment 24 h after tumor implant. Treatments were performed at days 1, 4, 7 and 11.
The toxicological evaluation was performed in terms of body weight loss and spleen and liver reduction.

[4] = PNU 145156E alone 100 mg/kg ip, single-agent arm of each of Tables 2-6
[5] = VP-16 15 mg/kg iv, combination: + PNU 145156E 100 mg/kg ip 2 h prior

SMILES | activity at 50 µg/mL ([1]; Mus musculus, M5076, 72 h, PNU 145156E 50000 ng/ml alone (cytotoxic 0 ng/ml), 72 h, 37° C., read-out: % cell growth ± S.E.) | % cell growth ± S.E. ([1]; PNU 145156E 50000 ng/ml alone (cytotoxic 0 ng/ml), 72 h, 37° C., 4320 min) | T/C % (median increase in survival time) [2, 4] | Tumor weight [2, 4] | A.U.C. % inhib. (inhibition of tumor growth) [2, 4] | TGD (tumor growth delay) [2, 4] | Toxic/total mice [3, 4] | activity at 0.004 µg/mL ([1]; Mus musculus, M5076, cytotoxic 4 ng/ml, PNU 145156E 0 ng/ml, 72 h, 37° C., read-out: % cell growth ± S.E.) | activity at 0.02 µg/mL ([1]; Mus musculus, M5076, cytotoxic 20 ng/ml, PNU 145156E 0 ng/ml, 72 h, 37° C., read-out: % cell growth ± S.E.) | activity at 0.1 µg/mL ([1]; Mus musculus, M5076, cytotoxic 100 ng/ml, PNU 145156E 0 ng/ml, 72 h, 37° C., read-out: % cell growth ± S.E.) | % cell growth ± S.E. ([1]; cytotoxic 4 ng/ml + PNU 145156E 50000 ng/ml, 72 h, 37° C.) | % cell growth ± S.E. ([1]; cytotoxic 20 ng/ml + PNU 145156E 50000 ng/ml, 72 h, 37° C.) | % cell growth ± S.E. ([1]; cytotoxic 100 ng/ml + PNU 145156E 50000 ng/ml, 72 h, 37° C.) | antiproliferative activity in the presence of PNU 145156E ([1]; in words, PNU 145156E 50000 ng/ml vs 0 ng/ml) | T/C % (median increase in survival time) [2, 5] | Tumor weight [2, 5] | A.U.C. % inhib. (inhibition of tumor growth) [2, 5] | TGD (tumor growth delay) [2, 5] | Toxic/total mice [3, 5]
Cn1cc(NC(=O)Nc2cc(C(=O)Nc3cc(C(=O)Nc4ccc5cc(S(=O)(=O)O)cc(S(=O)(=O)O)c5c4)n(C)c3)n(C)c2)cc1C(=O)Nc1cc(C(=O)Nc2ccc3cc(S(=O)(=O)O)cc(S(=O)(=O)O)c3c2)n(C)c1 [PNU 145156E, 7'-(carbonyl-bis(imino-N-methyl-4,2-pyrrolecarbonyl-imino(N-methyl-4,2-pyrrole)carbonylimino))bis(1,3-naphtalen-disulfonic acid)tetrasodium salt] | 85% | 88 ± 3% and 92 ± 5% and 92 ± 14% and 89 ± 19% | 121% and 141% and 148% | 1.45 ± 0.7 gr and 2.63 ± 0.8 gr and 1.4 ± 0.7 gr and 1.7 ± 0.65 gr | 88% and 85% and 90% and 75% | 9 days and 10 days and 16 days | 0/10 and 0/9 and 0/8 |  |  |  |  |  |  |  |  |  |  |  | 
COc1cc([C@@H]2c3cc4c(cc3[C@@H](O[C@@H]3O[C@@H]5CO[C@@H](C)O[C@H]5[C@H](O)[C@H]3O)[C@H]3COC(=O)[C@H]23)OCO4)cc(OC)c1O [VP-16, etoposide] |  |  |  |  |  |  |  | 96 ± 8% | 77 ± 5% | 15 ± 7% | 91 ± 2% | 66 ± 8% | 9 ± 4% | unchanged in the presence of PNU 145156E | 130% | 2.86 ± 0.8 gr | 90% | 12 days | 0/9
